Results: patent US9434743B2, “Indazole derivatives” (TAKEDA PHARMACEUTICAL COMPANY LIMITED, priority 2012, dated 2016)
pIC50: −log10 of the molar value.

How the values were obtained:
[1] = biological target: T1, human MetAP2 enzyme (Homo sapiens, UniProt P50579); test: MetAP2 enzyme assay, enzyme complexed with manganese ions; settings: MetAP2 Mn pIC50, MetAP2 enzyme complexed with manganese ions; Met-AMC substrate at Km
[2] = biological target: T1, human MetAP2 enzyme; test: MetAP2 enzyme assay, enzyme complexed with cobalt ions; settings: MetAP2 Co pIC50, MetAP2 enzyme complexed with cobalt ions; Met-AMC substrate at Km

T1 sequence (P50579 whole entry): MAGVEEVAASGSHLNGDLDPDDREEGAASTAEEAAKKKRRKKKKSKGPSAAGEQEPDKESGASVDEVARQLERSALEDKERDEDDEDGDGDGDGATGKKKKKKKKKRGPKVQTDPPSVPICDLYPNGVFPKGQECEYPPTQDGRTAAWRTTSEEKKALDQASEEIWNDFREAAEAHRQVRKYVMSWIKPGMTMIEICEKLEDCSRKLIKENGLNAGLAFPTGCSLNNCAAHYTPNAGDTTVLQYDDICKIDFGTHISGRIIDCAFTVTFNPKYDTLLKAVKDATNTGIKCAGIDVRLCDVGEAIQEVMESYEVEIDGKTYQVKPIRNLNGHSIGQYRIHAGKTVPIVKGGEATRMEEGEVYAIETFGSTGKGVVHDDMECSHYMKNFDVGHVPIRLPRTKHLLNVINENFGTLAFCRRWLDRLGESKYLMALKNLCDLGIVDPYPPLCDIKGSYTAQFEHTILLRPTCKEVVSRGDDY

| pIC50 [1] | pIC50 [2] | SMILES |
| --- | --- | --- |
| 7.90 | 7.40 | OCc1ccc(Cl)c(-c2cc(C(F)(F)F)cc3[nH]ncc23)c1 [Example 128, (4-chloro-3-(6-(trifluoromethyl)-1H-indazol-4-yl)phenyl)methanol] |
| 8.20 | 7.30 | Cc1c(-c2cc(C(F)(F)F)cc3[nH]ncc23)ccc2ncnn12 [Example 393, 5-methyl-6-(6-(trifluoromethyl)-1H-indazol-4-yl)-[1,2,4]triazolo[1,5-a]pyridine] |
| 8.30 | 7.40 | FC(F)(F)c1cc(-c2cnn(Cc3cccnc3)c2)c2cn[nH]c2c1 [Example 96, 4-(1-(pyridin-3-ylmethyl)-1H-pyrazol-4-yl)-6-(trifluoromethyl)-1H-indazole] |
| 8.10 | 8.20 | Cc1cc(Cn2nc(CO)c(-c3cc(C(F)(F)F)cc4[nH]ncc34)c2C)on1 (single isomer, unassigned) [Example 411, (5-methyl-1-((3-methylisoxazol-5-yl)methyl)-4-(6-(trifluoromethyl)-1H-indazol-4-yl)-1H-pyrazol-3-yl)methanol] |
| 7.90 | 7.90 | COc1ccc(C(=O)N2CC(O)C2)cc1-c1cc(C(F)(F)F)cc2[nH]ncc12 [Example 328, (3-hydroxyazetidin-1-yl)(4-methoxy-3-(6-(trifluoromethyl)-1H-indazol-4-yl)phenyl)methanone] |
| 8.00 | 7.20 | CN1CCN(C(=O)c2cnc(N)c(-c3cc(C(F)(F)F)cc4[nH]ncc34)c2)CC1 [Example 221, (6-amino-5-(6-(trifluoromethyl)-1H-indazol-4-yl)pyridin-3-yl)(4-methylpiperazin-1-yl)methanone] |
| 7.60 | 6.70 | N#Cc1ccc2ncc(-c3cc(C(F)(F)F)cc4[nH]ncc34)n2c1 [Example 153, 3-(6-(trifluoromethyl)-1H-indazol-4-yl)imidazo[1,2-a]pyridine-6-carbonitrile] |
| 8.00 | 7.40 | CCn1ncc(-c2cc(C(F)(F)F)cc3[nH]ncc23)c1C [Example 175, 4-(1-ethyl-5-methyl-1H-pyrazol-4-yl)-6-(trifluoromethyl)-1H-indazole] |
| 7.20 | 6.00 | Cn1ncc(-c2cc(C(F)(F)F)cc3[nH]ncc23)c1N [Example 165, 1-methyl-4-(6-(trifluoromethyl)-1H-indazol-4-yl)-1H-pyrazol-5-amine] |
| 8.40 | 7.70 | COc1ccc(C(N)=O)cc1-c1cc(C(F)(F)F)cc2[nH]ncc12 [Example 273, 4-methoxy-3-(6-(trifluoromethyl)-1H-indazol-4-yl)benzamide] |
| 7.80 | 6.00 | CNC(=O)Cn1c(=O)c(-c2cc(C(F)(F)F)cc3[nH]ncc23)cn(C)c1=O [Example 301, N-methyl-2-(3-methyl-2,6-dioxo-5-(6-(trifluoromethyl)-1H-indazol-4-yl)-2,3-dihydropyrimidin-1(6H)-yl)acetamide] |
| 8.40 | 7.20 | COC(=O)c1ccc(-c2cc(C(F)(F)F)cc3[nH]ncc23)cn1 [Example 269, methyl 5-(6-(trifluoromethyl)-1H-indazol-4-yl)picolinate] |
| 8.20 | 6.50 | Cc1cnc(-c2cc(C(F)(F)F)cc3[nH]ncc23)n1C [Example 162, 4-(1,5-dimethyl-1H-imidazol-2-yl)-6-(trifluoromethyl)-1H-indazole] |
| 8.20 | 7.00 | COCCNc1ncc(-c2cc(C(F)(F)F)cc3[nH]ncc23)cn1 [Example 293, N-(2-methoxyethyl)-5-(6-(trifluoromethyl)-1H-indazol-4-yl)pyrimidin-2-amine] |
| 8.10 | 7.40 | O=C(NCCO)c1ccc(F)c(-c2cc(C(F)(F)F)cc3[nH]ncc23)c1 [Example 360, 4-fluoro-N-(2-hydroxyethyl)-3-(6-(trifluoromethyl)-1H-indazol-4-yl)benzamide] |
| 8.00 | 7.20 | COc1cc(C)c(-c2cc(C(F)(F)F)cc3[nH]ncc23)cn1 [Example 253, 4-(6-methoxy-4-methylpyridin-3-yl)-6-(trifluoromethyl)-1H-indazole] |
| 7.40 | 5.90 | CN(C)CCn1c(=O)c(-c2cc(C(F)(F)F)cc3[nH]ncc23)cn(C)c1=O [Example 319, 3-(2-(dimethylamino)ethyl)-1-methyl-5-(6-(trifluoromethyl)-1H-indazol-4-yl)pyrimidine-2,4(1H,3H)-dione] |
| 7.80 | 6.60 | Cc1nn2c(=O)[nH]ncc2c1-c1cc(C(F)(F)F)cc2[nH]ncc12 [Example 222, 2-methyl-3-(6-(trifluoromethyl)-1H-indazol-4-yl)pyrazolo[1,5-d][1,2,4]triazin-7(6H)-one] |
| 8.10 | 6.80 | N#Cc1cc(F)ccc1-c1cc(C(F)(F)F)cc2[nH]ncc12 [Example 75, 5-fluoro-2-(6-(trifluoromethyl)-1H-indazol-4-yl)benzonitrile] |
| 7.10 | 5.40 | NC(=O)c1cc(F)ccc1-c1cc(C(F)(F)F)cc2[nH]ncc12 [Example 203, 5-fluoro-2-(6-(trifluoromethyl)-1H-indazol-4-yl)benzamide] |

| pIC50 [1] | pIC50 [2] | SMILES |
| --- | --- | --- |
| 8.20 | 6.40 | O=c1[nH]cc(-c2cc(C(F)(F)F)cc3[nH]ncc23)c(=O)[nH]1 [Example 54, 5-(6-(trifluoromethyl)-1H-indazol-4-yl)pyrimidine-2,4(1H,3H)-dione] |
| 7.80 | 6.10 | CN(C)C(=O)c1cc(-c2cc(C(F)(F)F)cc3[nH]ncc23)c(=O)n(C)c1 [Example 353, N,N,1-trimethyl-6-oxo-5-(6-(trifluoromethyl)-1H-indazol-4-yl)-1,6-dihydropyridine-3-carboxamide] |
| 8.10 | 7.30 | Cc1ccc(-c2cc(C(F)(F)F)cc3[nH]ncc23)c(C)n1 [Example 215, 4-(2,6-dimethylpyridin-3-yl)-6-(trifluoromethyl)-1H-indazole] |
| 8.40 | 7.30 | Cc1ncsc1-c1cc(C(F)(F)F)cc2[nH]ncc12 [Example 177, 4-methyl-5-(6-(trifluoromethyl)-1H-indazol-4-yl)thiazole] |
| 8.10 | 7.30 | Cc1cc(-c2cc(C(F)(F)F)cc3[nH]ncc23)n(C)n1 [Example 126, 4-(1,3-dimethyl-1H-pyrazol-5-yl)-6-(trifluoromethyl)-1H-indazole] |
| 7.60 | 6.00 | Cn1cc(-c2cc(C(F)(F)F)cc3[nH]ncc23)c(=O)n(CC#N)c1=O [Example 312, 2-(3-methyl-2,6-dioxo-5-(6-(trifluoromethyl)-1H-indazol-4-yl)-2,3-dihydropyrimidin-1(6H)-yl)acetonitrile] |
| 8.40 | 7.70 | CN1C(=O)Cc2cc(-c3cc(C(F)(F)F)cc4[nH]ncc34)ccc21 [Example 234, 1-methyl-5-(6-(trifluoromethyl)-1H-indazol-4-yl)indolin-2-one] |
| – | 7.70 | Cc1nn(C)c2cc(-c3cc(C(F)(F)F)cc4[nH]ncc34)ccc12 [Example 67, 1′,3′-dimethyl-6-(trifluoromethyl)-1H,1′H-4,6′-biindazole] |
| 8.10 | 7.10 | CN1CCN(C(=O)c2cc(-c3cc(C(F)(F)F)cc4[nH]ncc34)ccn2)CC1 [Example 284, (4-methylpiperazin-1-yl)(4-(6-(trifluoromethyl)-1H-indazol-4-yl)pyridin-2-yl)methanone] |
| 8.30 | 7.50 | FC(F)(F)c1cc(-c2ccc3scnc3c2)c2cn[nH]c2c1 [Example 107, 5-(6-(trifluoromethyl)-1H-indazol-4-yl)benzo[d]thiazole] |
| 7.80 | 6.70 | FC(F)(F)COc1ncccc1-c1cc(C(F)(F)F)cc2[nH]ncc12 [Example 100, 4-(2-(2,2,2-trifluoroethoxy)pyridin-3-yl)-6-(trifluoromethyl)-1H-indazole] |
| 7.50 | 6.30 | O=c1[nH]cnc2[nH]nc(-c3cc(C(F)(F)F)cc4[nH]ncc34)c12 [Example 156, 3-(6-(trifluoromethyl)-1H-indazol-4-yl)-1H-pyrazolo[3,4-d]pyrimidin-4(5H)-one] |
| 8.30 | 7.50 | Nc1ccc(-c2cc(C(F)(F)F)cc3[nH]ncc23)cn1 [Example 16, 5-(6-(trifluoromethyl)-1H-indazol-4-yl)pyridin-2-amine] |
| 7.70 | 7.20 | Cc1nn(CC(=O)N2CCOCC2)c(C)c1-c1cc(C(F)(F)F)cc2[nH]ncc12 [Example 317, 2-(3,5-dimethyl-4-(6-(trifluoromethyl)-1H-indazol-4-yl)-1H-pyrazol-1-yl)-1-morpholinoethanone] |
| 8.50 | 7.70 | CS(=O)(=O)NCc1ccc(-c2cc(C(F)(F)F)cc3[nH]ncc23)cc1 [Example 95, N-(4-(6-(trifluoromethyl)-1H-indazol-4-yl)benzyl)methanesulfonamide] |
| 8.00 | 7.00 | N#Cc1cccc(-c2cc(C(F)(F)F)cc3[nH]ncc23)c1 [Example 33, 3-(6-(trifluoromethyl)-1H-indazol-4-yl)benzonitrile] |
| 8.20 | 7.00 | NS(=O)(=O)c1ccc(-c2cc(C(F)(F)F)cc3[nH]ncc23)cc1F [Example 344, 2-fluoro-4-(6-(trifluoromethyl)-1H-indazol-4-yl)benzenesulfonamide] |
| – | 7.60 | Cc1nn(C)c2cc(-c3cc(C(F)(F)F)cc4[nH]ncc34)ccc12 [Example 68, 1′,3′-dimethyl-6-(trifluoromethyl)-1H,1′H-4,6′-biindazole] |
| – | 7.00 | Cc1c(-c2cc(C(F)(F)F)cc3[nH]ncc23)cnn1-c1ccccc1 [Example 71, 4-(5-methyl-1-phenyl-1H-pyrazol-4-yl)-6-(trifluoromethyl)-1H-indazole] |
| – | 7.40 | Cc1c(-c2cc(C(F)(F)F)cc3[nH]ncc23)cnn1-c1ccccc1 [Example 70, 4-(5-methyl-1-phenyl-1H-pyrazol-4-yl)-6-(trifluoromethyl)-1H-indazole] |
